SMILES strings stand for the structures.

This note sets out measurements from US20250313559A1 (Bayer Aktiengesellschaft, priority 2024, published 2025).

In this data set the test system is patients with HF and LVEF ≥40%. Kind of data set: […]-HF (Example 2) safety: adverse events, hyperkalemia, serum potassium, eGFR, creatinine, vital signs. In kind it is in vivo, human. The settings on record: number of patients (%); for Any Serious Adverse Events: treatment-emergent; for Elevated Serum Creatinine >[…] / Elevated Serum Creatinine ≥3.0 mg/dl / Elevated Serum Potassium >6.0 mmol/liter / Elevated Serum Potassium >[…] / Reduced Serum Potassium < […] / Systolic Blood Pressure <100 mm Hg: patients with at least one assessment. From the text: Safety assessments includes adverse events (AEs), serious adverse events (SAEs), vital signs including heart rate and blood pressure assessment. Safety laboratory tests includes blood chemistry, hematology and urinalysis.
The following safety procedures and variables have been assessed during the study: • SAEs and AEs leading to discontinuation of treatment with study intervention; • Change in body weight from baseline; • Change in serum potassium from baseline; • Number of participants with hyperkalemia (serum potassium >5.5 mmol/L); • Number of participants with severe hyperkalemia (serum potassium >6.0 mmol/L); • Number of participants with hospitalization for hyperkalemia; • Number of participants permanently discontinuing study intervention due to Hyperkalemia; • Change in vital signs (heart rate, SBP and DBP) from baseline; • Change in renal function measured by eGFR (CKD-EPI formula) change from baseline; • Number of participants with hospitalization for worsening of renal function; • Number of participants permanently discontinuing study intervention due to worsening of renal function; and • Changes in laboratory values from baseline.
AEs that occurred or worsened after the first dose of study drug and up to 3 days after the last dose of study drug have been considered as treatment-emergent AEs (TEAEs).
An overall summary of all AEs and treatment emergent AEs (TEAEs) has been generated by treatment group. The number and percentage of patients with TEAEs, post-treatment AEs occurring more than 3 days after last intake of study intervention, treatment-emergent SAEs, treatment-emergent study intervention-related AEs, treatment-emergent study intervention-related SAEs, TEAEs causing premature and permanent discontinuation of study intervention, treatment-emergent non-serious AEs, TEAEs by maximum intensity, drug-related TEAEs by maximum intensity has been summarized by treatment group using Medical Dictionary for Regulatory Activity (MedDRA) terms grouped by Primary System Organ Class and Preferred Term.
The number of patients with treatment-emergent (until 3 days after last study intervention administration) abnormal laboratory values above or below the normal range has been tabulated by the laboratory parameter and treatment group.
Summary statistics including changes from baseline have been calculated by treatment group and visit for all quantitative laboratory parameters, i.e. for hematology, clinical chemistry and urinalysis. Geometric statistics and ratios to baseline has been presented for urinary albumin-to-creatinine ratio (UACR), creatinine, and NT-proBNP, instead of arithmetic statistics with changes from baseline.
The following special safety parameters have been further assessed by displaying the number and percentage of patients with safety events as described below by treatment group, visit, and for any time on treatment (including unscheduled assessments) and until 3 days after last study intervention administration. This has also been performed by stratification factors.

The mark [1] stands for this setting: No SGLT2i Use, finerenone n = 2,601.

`CCOc1ncc(C)c2c1[C@H](c1ccc(C#N)cc1OC)C(C(N)=O)=C(C)N2` [finerenone, (4S)-4-(4-cyano-2-methoxyphenyl)-5-ethoxy-2,8-dimethyl-1,4-dihydro-1,6-naphthyridine-3-carboxamide]: under setting [1], the “Any Adverse Events leading to Treatment Discontinuation” value is given as 90 (3.5%), the “Hyperkalemia leading to Treatment Discontinuation” value was 12 (0.5%), the “Investigator Reported Hyperkalemia” value is 246 (9.5%) and the “Investigator Reported Hyperkalemia leading to Hospitalization” value is recorded as 14 (0.5%). The “Any Serious Adverse Events” value under setting [1] is reported as 995 (38.3%). Under “No SGLT2i Use”, the “Elevated Serum Creatinine >[…]” value is recorded as 120 (4.8%), the “Elevated Serum Creatinine ≥3.0 mg/dl” value is given as 50 (2.0%), the “Elevated Serum Potassium >6.0 mmol/liter” value is given as 76 (3.0%) and the “Elevated Serum Potassium >[…]” value was 358 (14.2%). For the same molecule, for the setting “No SGLT2i Use”, the “Reduced Serum Potassium < […]” value is 118 (4.7%) and the “Systolic Blood Pressure <100 mm Hg” value is 435 (17.2%). Also, where the note is “SGLT2i Use, finerenone n = 392”, the “Any Adverse Events leading to Treatment Discontinuation” value was 6 (1.5%), the “Hyperkalemia leading to Treatment Discontinuation” value is listed as 1 (0.3%), the “Investigator Reported Hyperkalemia” value is listed as 43 (11.0%) and the “Investigator Reported Hyperkalemia leading to Hospitalization” value is reported as 2 (0.5%). For the setting “SGLT2i Use, finerenone n = 392”, the “Any Serious Adverse Events” value is reported as 162 (41.3%). Also, for the setting “SGLT2i Use”, the “Elevated Serum Creatinine >[…]” value is listed as 21 (5.5%), the “Elevated Serum Creatinine ≥3.0 mg/dl” value was 7 (1.8%), the “Elevated Serum Potassium >6.0 mmol/liter” value is on record as 10 (2.6%) and the “Elevated Serum Potassium >[…]” value is 55 (14.5%). For the setting “SGLT2i Use”, the “Reduced Serum Potassium < […]” value is given as 9 (2.4%) and the “Systolic Blood Pressure <100 mm Hg” value was 103 (27.0%).
